Test system: HT-29 human colon adenocarcinoma cells
Assay: Tumor cell growth inhibition assay (Cell Titer Glo, cell viability), HT-29
Type: cell-based
Details: HT-29 cells, 72 hours treatment
Protocol: The human colon adenocarcinoma cell lines were obtained from ATCC and grown under standard cell culture conditions in RPMI 1640 medium containing 5% fetal bovine serum (FBS) at 37°C in a humidified atmosphere with 5% CO2.
Tissue culture treated 96-well microtiter plates were seeded at a density of 5,000 cells/well. For growth inhibition assays, cells were incubated at 37°C for 18-24 hours, treated with the specified compound or vehicle (0.1% DMSO final) control, and incubated at 37°C an additional 72 hours. The effect of treatment on cell viability was determined using the luminescent Cell Titer Glo Assay (Promega).
HT-29 human colon adenocarcinoma cells were treated with compounds of the invention and grown under standard cell culture conditions. […]

Row | SMILES | IC50 [µM]
1 | CCOC(=O)CCNC(=O)C(C)c1ccc2cc(OC)ccc2c1 (centres unmarked) [IV] | 123
2 | COC(=O)CC(NC(=O)C(C)c1ccc2cc(OC)ccc2c1)C(=O)OC (centres unmarked) [IX] | 121
3 | COC(=O)C(CC(C)C)NC(=O)C(C)c1ccc2cc(OC)ccc2c1 (centres unmarked) [VII] | 34.5
4 | CCOC(=O)C(CCSC)NC(=O)C(C)c1ccc2cc(OC)ccc2c1 (centres unmarked) [XII] | 49.3
5 | CCOC(=O)C(NC(=O)C(C)c1ccc2cc(OC)ccc2c1)C(C)C (centres unmarked) [XI] | 29.4
